Measurements from PubChem BioAssay (NCI).
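1) Cells in 96-well plates. 2) Compound, 48 h, 5 concentrations. 3) Linear interpolation between surrounding doses. 4) Unreached endpoint = highest concentration. GI50 = concentration required for 50% inhibition of growth. TGI marks complete inhibition of growth.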

What was measured:
Assay in all cases: DTP human tumour cell line panel, 48 h
[1] = test system: OVCAR-8 ovarian
[2] = test system: RPMI-8226 leukemia
[3] = test system: SNB-75 CNS
[4] = test system: IGROV1 ovarian
[5] = test system: TK-10 renal
[6] = test system: SN12C renal
[7] = test system: MCF7 breast
[8] = test system: DU-145 prostate
[9] = test system: PC-3 prostate

Structure (SMILES): Cc1nc2ccccc2nc1NS(=O)(=O)c1ccc(N)cc1
- TGI [1]: > 100 µM
- TGI [2]: > 100 µM
- TGI [3]: > 100 µM
- TGI [4]: > 100 µM
- TGI [5]: > 100 µM
- TGI [6]: > 100 µM

Structure (SMILES): O=S(=O)(CC1=NC2C=CC=CC2N=C1)NCc1ccccc1 (stereo unspecified)
- TGI [1]: > 100 µM
- TGI [2]: > 100 µM
- TGI [3]: > 100 µM
- TGI [4]: > 100 µM
- TGI [5]: > 100 µM
- TGI [6]: > 100 µM

Structure (SMILES): CSc1nc(C)cc(Nc2ccc(O)c(CN3CCCCC3)c2)n1
- TGI [1]: > 100 µM
- TGI [7]: > 100 µM
- TGI [2]: 71.4 µM
- TGI [3]: > 100 µM
- TGI [4]: > 100 µM
- TGI [8]: > 100 µM
- TGI [6]: > 100 µM

Structure (SMILES): CC(=O)Nc1ccc(-c2nnc(SCC(=O)Nc3ccccc3Cl)o2)cc1
- TGI [1]: > 100 µM
- TGI [3]: > 100 µM
- TGI [4]: > 100 µM
- TGI [5]: > 100 µM
- TGI [6]: > 100 µM

Structure (SMILES): CCCCOC(=O)/C(CC(=O)C=C(C)C)=N\NS(=O)(=O)c1ccc(C)cc1
- TGI [1]: > 100 µM
- TGI [2]: > 100 µM
- TGI [3]: > 100 µM
- TGI [4]: > 100 µM
- TGI [5]: > 100 µM
- TGI [6]: > 100 µM

Structure (SMILES): Cc1ccc(S(=O)(=O)N/N=C2\C(=O)C3CC2C(Cl)C3Cl)cc1 (stereo unspecified)
- TGI [1]: > 100 µM
- TGI [2]: > 100 µM
- TGI [3]: > 100 µM
- TGI [4]: > 100 µM
- TGI [5]: > 100 µM
- TGI [6]: > 100 µM

Structure (SMILES): C1CSCC2(COC2)CS1
- TGI [1]: > 100 µM
- TGI [9]: > 100 µM
- TGI [7]: > 100 µM
- TGI [3]: > 100 µM
- TGI [8]: > 100 µM
- TGI [5]: > 100 µM
- TGI [6]: > 100 µM

Structure (SMILES): O=c1c2cc(I)ccc2nc(-c2cccs2)n1Nc1ccccc1
- TGI [1]: > 100 µM
- TGI [9]: > 100 µM
- GI50 [7]: 1.99 µM
- TGI [7]: > 100 µM
- TGI [2]: > 100 µM
- TGI [4]: > 100 µM
- TGI [6]: > 100 µM

Structure (SMILES): C1=CCN(c2ccccc2)CC1
- TGI [1]: 81.2 µM
- TGI [2]: > 100 µM
- TGI [3]: > 100 µM
- TGI [4]: 96.3 µM
- TGI [5]: > 100 µM
- TGI [6]: 87 µM

Structure (SMILES): Nc1ccc(N=Nc2ccc(/C=C/c3ccc(N=Nc4ccc(N)c5ccc(S(=O)(=O)O)cc45)cc3S(=O)(=O)O)c(S(=O)(=O)O)c2)c2cc(S(=O)(=O)O)ccc12
- TGI [1]: > 100 µM
- TGI [7]: > 100 µM
- TGI [2]: > 100 µM
- TGI [3]: > 100 µM
- TGI [4]: > 100 µM
- TGI [6]: > 100 µM

Structure (SMILES): O=C1/C(=C/c2cccc([N+](=O)[O-])c2)COc2ccccc21
- TGI [1]: 9.19 µM
- TGI [3]: > 61.5 µM
- TGI [4]: > 19.9 µM
- TGI [5]: > 95.2 µM

Structure (SMILES): CCN(CC)CCCCC1CCN(CC(=O)N2c3ccccc3NC(=O)c3ccccc32)CC1
- TGI [1]: > 100 µM
- TGI [2]: > 100 µM
- TGI [3]: > 100 µM
- TGI [5]: > 100 µM
- TGI [6]: > 100 µM

Structure (SMILES): CCc1cc(Cc2cc(CC)c(NC(=O)C3=CC(=O)CC(c4ccc(OC)cc4)O3)c(CC)c2Cl)c(Cl)c(CC)c1NC(=O)C1=CC(=O)CC(c2ccc(OC)cc2)O1 (stereo unspecified)
- TGI [1]: 90.5 µM
- TGI [2]: 46.8 µM
- TGI [3]: 46.2 µM
- TGI [4]: 45.5 µM
- TGI [5]: 51.7 µM
- TGI [6]: 39.5 µM

Structure (SMILES): COc1ccc2c(c1)c(Cc1c(C)n(C)c3ccc(OC)cc13)c(C)n2C
- TGI [1]: > 100 µM
- TGI [2]: > 100 µM
- TGI [3]: > 100 µM
- TGI [4]: > 100 µM
- TGI [5]: > 100 µM
- TGI [6]: > 100 µM

Structure (SMILES): O=C(O)Cc1cc(=O)oc2cc(O)c(Cl)cc12
- TGI [1]: > 100 µM
- TGI [2]: > 100 µM
- TGI [3]: > 100 µM
- TGI [4]: > 100 µM
- TGI [5]: > 100 µM
- TGI [6]: > 100 µM

Structure (SMILES): CC(=NNC(=S)Nc1ccccc1C)c1cccc(C(C)=NNC(=S)Nc2ccccc2C)n1
- TGI [1]: > 100 µM
- TGI [9]: > 100 µM
- TGI [7]: > 100 µM
- TGI [2]: > 100 µM
- TGI [4]: > 100 µM
- TGI [8]: > 100 µM
- TGI [5]: > 100 µM
- TGI [6]: > 100 µM

Structure (SMILES): CCCCCCCCCCCCCCCC(=O)NC1CCc2cc(O)c(O)c(O)c2-c2ccc(SC)c(=O)cc21 (stereo unspecified)
- TGI [1]: 28.8 µM
- TGI [2]: > 100 µM
- TGI [3]: 9.13 µM
- TGI [4]: 25.3 µM
- TGI [5]: 30.2 µM
- TGI [6]: 35.8 µM

Structure (SMILES): c1ccc(C2=NN(c3ccccc3)C3(S2)SC(c2ccccc2)(c2ccccc2)c2ccccc23)cc1 (stereo unspecified)
- TGI [1]: > 100 µM
- TGI [2]: > 100 µM
- TGI [3]: > 100 µM
- TGI [4]: > 100 µM
- TGI [5]: > 100 µM
- TGI [6]: > 100 µM

Structure (SMILES): COc1ccc(CCN2CCC(C#N)(c3ccc(OC)c(OC)c3)CC2)cc1OC
- TGI [1]: > 100 µM
- TGI [2]: > 100 µM
- TGI [3]: > 100 µM
- TGI [4]: > 100 µM
- TGI [5]: > 100 µM
- TGI [6]: > 100 µM

Structure (SMILES): COc1ccc2c(OC)c3ccoc3nc2c1O
- TGI [1]: > 100 µM
- TGI [2]: > 100 µM
- TGI [3]: > 100 µM
- TGI [4]: > 100 µM
- TGI [5]: > 100 µM
- TGI [6]: > 100 µM

Structure (SMILES): CC(=O)OC1[C@H]2c3cc4c(cc3CN3CCC(C[C@@H]1OC(C)=O)C23)OCO4 (stereo partly specified)
- TGI [1]: > 75 µM
- TGI [2]: > 75 µM
- TGI [3]: > 75 µM
- TGI [4]: > 75 µM
- TGI [5]: > 75 µM
- TGI [6]: > 75 µM

Structure (SMILES): COc1cc(C2c3cccc4cccc(c34)C3CCC(=O)N32)cc(O)c1O (stereo unspecified)
- TGI [1]: > 50 µM
- TGI [9]: > 50 µM
- TGI [7]: > 50 µM
- TGI [2]: 30.9 µM
- TGI [3]: > 50 µM
- TGI [4]: > 50 µM
- TGI [8]: > 50 µM
- TGI [6]: > 50 µM

Structure (SMILES): COC(=O)c1c/c(=N\NC(=O)CC(=O)Nc2ccccc2Cl)c2ccccc2o1
- TGI [1]: > 100 µM
- TGI [2]: > 100 µM
- TGI [3]: > 100 µM
- TGI [4]: > 100 µM
- TGI [5]: > 100 µM
- TGI [6]: > 100 µM
